Patent US5795858A, “Treatment or prevention of Crohn's disease and/or ulcerative colitis” (Peptide Technology Limited, priority 1993, dated 1998)
Entries after “also recorded” stand apart in the source; their conditions may differ.

Test system: TNBS colitis
Test: TNBS colitis in rats, 2 week series, once daily s.c. treatment
Format: in vivo, Male Sprague-Dawley rats
Description: Treatment was continued on a once daily basis for the following 14 or 28 days. On day 14 (2 week series) or 28 (4 week series), animals were weighed and anaesthetised with pentobarbital. A cardiac puncture was performed to obtain a sample of peripheral blood for the determination of total white blood cell count (WBC) using a coulter counter, and differential count. A midline laparotomy was then performed and the colon exposed and excised. The colon was then opened longitudinally and rinsed clear of […] material. The severity of colonic mucosal injury, diarrhoea, and adhesions was then scored by an observer unaware of the treatment group of the animals using the attached criteria. The length (in cm) and weight of each colonic segment was then determined to allow the determination of the colonic weight/length ratio (as an index of intramural edema and/or fibrosis). Samples of tissue were then taken for biochemical determination of tissue myeloperoxidase (MPO) activity, as an index of granulocyte accumulation using standard biochemical techniques. Samples of tissue were also taken and fixed for subsequent processing for histopathological examination. Differences between the different treatment groups were analysed using either one way analysis of variance (body weight, WBC counts, colonic weight/length ratio, […] activity) or the non-parametric equivalent Kruskall-Wallis test (semiquantitive grading of severity of mucosal injury, adhesions, or diarrhoea). Significance of differences between individual pairs of treatment groups were then assessed using post hoc Tukey's test for parametric data and Dunn's multiple comparison test for non-parametric data. […]

Molecule: C[C@]12C=CC(=O)C=C1CC[C@@H]1[C@@H]2C(=O)C[C@@]2(C)[C@H]1CC[C@]2(O)C(=O)CO [prednisone, reference compound]
- total WBC counts (5 mg/kg once daily s.c. for 2 weeks, vs TNBS colitis animals receiving vehicle, p 0.06-0.07, FIG. 1): reductions in total WBC counts
- severity of colonic adhesions (5 mg/kg once daily s.c., 2 weeks, FIG. 4): general trend towards reduction of adhesions
- TNBS colitis-associated changes in body weight (weight gain) (5 mg/kg once daily s.c., 2 weeks, initial vs final body weight, FIG. 2): increased weight gains in animals with colitis, with this becoming significant (p<0.05)
- colonic weight/length ratio (index of colonic edema) (5 mg/kg once daily s.c., 2 weeks, pattern compared with adhesions (no significant reduction, trend towards reduction), FIG. 5): Virtually identical patterns
- colonic myeloperoxidase activity (index of granulocyte accumulation) (5 mg/kg once daily s.c., 2 weeks, pattern compared with adhesions (no significant reduction, trend towards reduction), FIG. 7): Virtually identical patterns

Molecule: D--Ala--Ser--Thr--Thr--Thr--Asn--Tyr--Thr--NH2 [Peptide T]
- TNBS colitis-associated changes in body weight (weight gain) (rat, in vivo): increased weight gains in animals with colitis, with this becoming significant (p<0.05); also recorded: approaching significance (p values of 0.06 to 0.08)
- colonic myeloperoxidase activity (index of granulocyte accumulation) (rat, in vivo): Virtually identical patterns
- colonic weight/length ratio (index of colonic edema) (rat, in vivo): Virtually identical patterns
- reducing failure to thrive/lack of weight gain (rat, in vivo): comparable to prednisone
- reducing the severity of the leukocytosis (rat, in vivo): comparable to prednisone
- severity of colonic adhesions (rat, in vivo): general trend towards reduction of adhesions
- severity of mucosal injury (semiquantitative grading scale) (rat, in vivo): may have marginally reduced the severity of mucosal injury
- total WBC counts (rat, in vivo): reductions in total WBC counts
